Test results published in PMC7747014 (Journal of medicinal chemistry, 2015).
Entries after “also recorded” stand apart in the source; their conditions may differ. Read-outs that look alike come from different tables or passages of the source.

How the values were obtained:
[1] = biological target: T1, drug−Top1−DNA cleavage complexes (Homo sapiens, UniProt P11387); assay: Kinetics of reversal assay of Top1-mediated DNA cleavage complexes; format: biochemical; conditions: for reversal of ternary cleavage complexes: common cleavage sites 70, 92, 97 and 119, forward reaction terminated with 0.35 M NaCl
T1 sequence (P11387 1-765): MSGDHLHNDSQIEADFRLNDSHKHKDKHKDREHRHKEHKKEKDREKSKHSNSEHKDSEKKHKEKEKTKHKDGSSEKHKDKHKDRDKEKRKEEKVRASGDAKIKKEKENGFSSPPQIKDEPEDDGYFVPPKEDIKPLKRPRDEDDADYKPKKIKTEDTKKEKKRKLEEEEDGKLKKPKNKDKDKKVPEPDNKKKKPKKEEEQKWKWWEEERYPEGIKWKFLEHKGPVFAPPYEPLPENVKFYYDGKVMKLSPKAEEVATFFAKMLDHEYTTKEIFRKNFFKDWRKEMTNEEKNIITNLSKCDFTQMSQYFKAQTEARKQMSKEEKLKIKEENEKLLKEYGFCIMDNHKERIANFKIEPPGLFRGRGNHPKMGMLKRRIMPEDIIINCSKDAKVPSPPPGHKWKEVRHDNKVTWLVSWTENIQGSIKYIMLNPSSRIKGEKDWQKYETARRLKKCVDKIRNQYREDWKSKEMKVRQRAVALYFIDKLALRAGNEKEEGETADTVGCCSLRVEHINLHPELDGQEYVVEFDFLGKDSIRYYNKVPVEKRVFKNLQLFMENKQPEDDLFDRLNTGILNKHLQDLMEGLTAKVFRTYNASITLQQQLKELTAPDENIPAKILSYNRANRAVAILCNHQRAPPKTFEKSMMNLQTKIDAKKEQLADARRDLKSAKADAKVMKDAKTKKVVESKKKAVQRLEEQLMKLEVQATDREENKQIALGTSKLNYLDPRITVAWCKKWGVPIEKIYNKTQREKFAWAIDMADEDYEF

recombinant TDP1 [2] = biological target: T2, recombinant TDP1 (Homo sapiens, UniProt Q9NUW8); assay: Gel-based assay measuring the inhibition of recombinant TDP1; format: biochemical; conditions: read-out: TDP1 inhibition; semiquantitative IC50 scale
T2 sequence (Q9NUW8 whole entry): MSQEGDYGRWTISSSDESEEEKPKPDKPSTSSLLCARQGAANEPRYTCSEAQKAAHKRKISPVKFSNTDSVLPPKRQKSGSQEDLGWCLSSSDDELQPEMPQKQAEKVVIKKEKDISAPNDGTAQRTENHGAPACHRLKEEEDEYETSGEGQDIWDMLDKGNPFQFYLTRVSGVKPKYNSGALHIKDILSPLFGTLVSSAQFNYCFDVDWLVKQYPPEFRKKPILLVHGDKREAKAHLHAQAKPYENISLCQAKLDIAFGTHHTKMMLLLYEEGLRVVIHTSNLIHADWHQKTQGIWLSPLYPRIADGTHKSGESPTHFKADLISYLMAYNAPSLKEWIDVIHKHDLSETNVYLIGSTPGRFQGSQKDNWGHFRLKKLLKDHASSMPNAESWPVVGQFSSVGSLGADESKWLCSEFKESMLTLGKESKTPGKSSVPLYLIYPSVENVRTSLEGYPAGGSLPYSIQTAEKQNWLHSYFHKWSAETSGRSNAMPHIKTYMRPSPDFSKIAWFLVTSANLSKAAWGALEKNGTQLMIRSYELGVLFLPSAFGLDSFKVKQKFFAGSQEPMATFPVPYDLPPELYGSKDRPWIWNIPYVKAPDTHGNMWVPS

Human recombinant Top1 [3] = biological target: T3, Human recombinant Top1 (Homo sapiens, UniProt P11387); assay: Top1-mediated DNA cleavage assay; format: biochemical; conditions: for trapping of Top1 cleavage complexes at low concentration: 5 nM, dose-dependent gel (Figure 8)
T3 sequence (P11387 1-765): T1 sequence (P11387 1-765)

[4] = system: 60 common human cancer cell lines (NCI-60); conditions: read-out: MGM; average GI50 across 60 cell lines; cited from earlier work
renal SN12C = conditions: read-out: cytotoxicity (GI50 in μM) renal SN12C; cited from earlier work
colon HCT-116 = conditions: read-out: cytotoxicity (GI50 in μM) colon HCT-116; cited from earlier work
prostate DU-145 = conditions: read-out: cytotoxicity (GI50 in μM) prostate DU-145; cited from earlier work
breast MCF7 = conditions: read-out: cytotoxicity (GI50 in μM) breast MCF7; cited from earlier work
recombinant TDP1 [5] = biological target: T2, recombinant TDP1; conditions: read-out: TDP1 inhibition; semiquantitative IC50 scale; cited from earlier work
melanoma UACC-62 = conditions: read-out: cytotoxicity (GI50 in μM) melanoma UACC-62; cited from earlier work
CNS SF-539 = conditions: read-out: cytotoxicity (GI50 in μM) CNS SF-539; cited from earlier work
lung HOP-62 = conditions: read-out: cytotoxicity (GI50 in μM) lung HOP-62; cited from earlier work
ovarian OVACAR-3 = conditions: read-out: cytotoxicity (GI50 in μM) ovarian OVACAR-3; cited from earlier work
Human recombinant Top1 [6] = biological target: T3, Human recombinant Top1; conditions: graded relative to 1 μM camptothecin; cited from earlier work

Structure (SMILES) | reversal of ternary cleavage complexes [1] | DNA alkylation / irreversible ternary cleavage complex ([1]; from decrease of cleavage bands over time) | IC50 (recombinant TDP1 [2]) | trapping of Top1 cleavage complexes at low concentration (Human recombinant Top1 [3]) | Top1 cleavage (Human recombinant Top1 [3]; graded relative to 1 μM camptothecin) | GI50 [4] | GI50 (renal SN12C) | GI50 (colon HCT-116) | GI50 (prostate DU-145) | GI50 (breast MCF7) | IC50 (recombinant TDP1 [5]) | GI50 (melanoma UACC-62) | GI50 (CNS SF-539) | GI50 (lung HOP-62) | GI50 (ovarian OVACAR-3) | Top1 cleavage (Human recombinant Top1 [6])
O=C1c2cc(O)ccc2-c2c1c1ccc([N+](=O)[O-])cc1c(=O)n2CCCBr [Compound 68, 6-(3-Bromopropyl)-9-hydroxy-3-nitro-5H-indeno[1,2-c]-isoquinoline-5,11(6H)-dione] | quite persistent but did reverse over time; also recorded: reversed slower than that of camptothecin | did not alkylate or form an irreversible ternary cleavage complex; also recorded: no evidence of DNA alkylation | 37000 to 111000 nM | trapped Top1 cleavage complexes at a concentration as low as 5 nM | +++++ | – | – | – | – | – | – | – | – | – | – | –
COc1cc2c(cc1O)-c1c(c3cc(OC)c(OC)cc3c(=O)n1CCCN1CCOCC1)C2=O [Compound 8] | – | – | – | – | – | 3100 ± 300 nM | 0.19 µM | 2.3 µM | 0.2 µM | 0.03 µM | 37000 to 111000 nM | 0.07 µM | 0.28 µM | 0.18 µM | 8.3 µM | –
CC[C@@]1(O)C(=O)OCc2c1cc1n(c2=O)Cc2cc3ccccc3nc2-1 [Compound 1, camptothecin] | reversed much faster | – | – | lesser activity at that concentration | – | – | – | – | < 0.01 µM | < 0.01 µM | – | < 0.01 µM | < 0.01 µM | < 0.01 µM | – | ++++
